Measured values taken from ChEMBL document CHEMBL5543067, “Advances in nitric oxide regulators for the treatment of ischemic stroke” (Eur J Med Chem, 2023).
Values after ≈ are worked out from the molar mass of the structure shown. Values belong to the molecule of their own block, whether it stands above or below them.

Assays:
[1] = molecular target: T1, Nitric oxide synthase, inducible (Mus musculus, UniProt P29477); assay: Inhibition of mouse iNOS in RAW264.7 cells; assay type: cell-based
T1 sequence (P29477 whole entry): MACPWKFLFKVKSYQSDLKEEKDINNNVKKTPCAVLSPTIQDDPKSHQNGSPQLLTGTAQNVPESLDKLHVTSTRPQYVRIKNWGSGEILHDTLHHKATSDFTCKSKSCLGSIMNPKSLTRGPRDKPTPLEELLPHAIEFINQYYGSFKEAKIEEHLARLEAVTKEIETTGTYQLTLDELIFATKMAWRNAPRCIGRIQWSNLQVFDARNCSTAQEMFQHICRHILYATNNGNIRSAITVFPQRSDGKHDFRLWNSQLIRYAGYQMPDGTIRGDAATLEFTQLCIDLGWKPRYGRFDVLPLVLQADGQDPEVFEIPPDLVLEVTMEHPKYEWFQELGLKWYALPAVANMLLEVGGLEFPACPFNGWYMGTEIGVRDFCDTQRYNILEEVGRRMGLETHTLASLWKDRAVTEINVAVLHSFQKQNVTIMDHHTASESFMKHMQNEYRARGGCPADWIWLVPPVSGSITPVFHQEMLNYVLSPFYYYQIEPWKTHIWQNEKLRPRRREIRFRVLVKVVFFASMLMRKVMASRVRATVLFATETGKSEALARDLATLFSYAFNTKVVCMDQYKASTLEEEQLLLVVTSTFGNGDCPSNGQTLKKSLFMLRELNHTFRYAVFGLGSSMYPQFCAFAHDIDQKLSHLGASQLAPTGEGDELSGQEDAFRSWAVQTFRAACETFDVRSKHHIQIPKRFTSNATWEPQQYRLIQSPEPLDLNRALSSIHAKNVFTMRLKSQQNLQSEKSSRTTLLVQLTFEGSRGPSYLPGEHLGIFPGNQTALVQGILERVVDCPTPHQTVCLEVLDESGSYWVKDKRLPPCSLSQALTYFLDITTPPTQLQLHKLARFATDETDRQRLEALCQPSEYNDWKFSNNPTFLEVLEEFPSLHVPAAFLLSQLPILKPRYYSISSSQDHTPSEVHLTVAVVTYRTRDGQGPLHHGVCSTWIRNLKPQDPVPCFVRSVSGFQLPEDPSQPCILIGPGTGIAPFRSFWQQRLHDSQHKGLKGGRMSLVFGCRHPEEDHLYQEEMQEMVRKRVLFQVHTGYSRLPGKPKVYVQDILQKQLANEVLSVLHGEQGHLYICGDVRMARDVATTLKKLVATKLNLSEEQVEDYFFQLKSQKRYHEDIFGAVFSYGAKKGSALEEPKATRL

Nitric oxide synthase 1 [2] = molecular target: Nitric oxide synthase 1 (Rattus norvegicus, UniProt P29476); assay: Inhibition of rat cerebellum nNOS; assay type: tissue-based
Sequence of Nitric oxide synthase 1 (Rattus norvegicus, UniProt P29476) (P29476 whole entry): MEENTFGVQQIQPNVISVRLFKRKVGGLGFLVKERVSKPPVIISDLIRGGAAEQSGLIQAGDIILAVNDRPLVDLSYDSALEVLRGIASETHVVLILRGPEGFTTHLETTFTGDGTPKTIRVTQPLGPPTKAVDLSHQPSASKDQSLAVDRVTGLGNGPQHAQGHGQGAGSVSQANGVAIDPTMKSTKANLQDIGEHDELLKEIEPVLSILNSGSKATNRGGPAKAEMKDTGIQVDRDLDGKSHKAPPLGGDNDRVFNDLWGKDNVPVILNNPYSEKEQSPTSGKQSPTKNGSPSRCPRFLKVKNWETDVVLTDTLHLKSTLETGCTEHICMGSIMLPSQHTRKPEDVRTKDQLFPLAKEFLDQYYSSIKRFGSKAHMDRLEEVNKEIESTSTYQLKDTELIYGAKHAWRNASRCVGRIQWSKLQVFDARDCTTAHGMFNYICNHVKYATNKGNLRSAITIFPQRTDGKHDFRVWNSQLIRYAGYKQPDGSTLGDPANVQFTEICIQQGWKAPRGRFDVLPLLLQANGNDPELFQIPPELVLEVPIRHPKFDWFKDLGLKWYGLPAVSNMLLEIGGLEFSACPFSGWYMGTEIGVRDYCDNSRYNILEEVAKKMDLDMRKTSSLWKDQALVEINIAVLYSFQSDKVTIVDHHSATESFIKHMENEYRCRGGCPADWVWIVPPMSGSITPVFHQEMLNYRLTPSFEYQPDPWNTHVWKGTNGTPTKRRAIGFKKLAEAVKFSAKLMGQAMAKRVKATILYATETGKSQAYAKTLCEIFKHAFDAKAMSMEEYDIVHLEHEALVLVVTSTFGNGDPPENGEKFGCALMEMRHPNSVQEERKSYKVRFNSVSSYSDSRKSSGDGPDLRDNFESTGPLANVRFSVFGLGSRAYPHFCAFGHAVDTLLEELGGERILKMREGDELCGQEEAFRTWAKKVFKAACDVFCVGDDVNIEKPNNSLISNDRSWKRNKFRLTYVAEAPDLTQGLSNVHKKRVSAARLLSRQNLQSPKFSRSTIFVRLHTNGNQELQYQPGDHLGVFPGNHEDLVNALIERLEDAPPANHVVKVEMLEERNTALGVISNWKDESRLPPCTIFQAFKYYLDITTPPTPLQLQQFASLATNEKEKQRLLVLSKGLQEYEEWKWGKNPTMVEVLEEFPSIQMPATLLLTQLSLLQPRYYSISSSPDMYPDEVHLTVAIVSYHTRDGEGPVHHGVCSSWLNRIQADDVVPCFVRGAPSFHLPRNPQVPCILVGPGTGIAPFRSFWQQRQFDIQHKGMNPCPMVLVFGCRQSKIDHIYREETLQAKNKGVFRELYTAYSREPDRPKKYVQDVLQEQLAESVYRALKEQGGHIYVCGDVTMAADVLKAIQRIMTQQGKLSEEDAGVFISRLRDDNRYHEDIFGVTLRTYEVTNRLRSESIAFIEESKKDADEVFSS

Nitric oxide synthase 3 [3] = molecular target: T2, Nitric oxide synthase 3 (Homo sapiens, UniProt P29474); assay: Inhibition of human Endothelial cells eNOS; assay type: cell-based, Endothelial cell
T2 sequence (P29474 whole entry): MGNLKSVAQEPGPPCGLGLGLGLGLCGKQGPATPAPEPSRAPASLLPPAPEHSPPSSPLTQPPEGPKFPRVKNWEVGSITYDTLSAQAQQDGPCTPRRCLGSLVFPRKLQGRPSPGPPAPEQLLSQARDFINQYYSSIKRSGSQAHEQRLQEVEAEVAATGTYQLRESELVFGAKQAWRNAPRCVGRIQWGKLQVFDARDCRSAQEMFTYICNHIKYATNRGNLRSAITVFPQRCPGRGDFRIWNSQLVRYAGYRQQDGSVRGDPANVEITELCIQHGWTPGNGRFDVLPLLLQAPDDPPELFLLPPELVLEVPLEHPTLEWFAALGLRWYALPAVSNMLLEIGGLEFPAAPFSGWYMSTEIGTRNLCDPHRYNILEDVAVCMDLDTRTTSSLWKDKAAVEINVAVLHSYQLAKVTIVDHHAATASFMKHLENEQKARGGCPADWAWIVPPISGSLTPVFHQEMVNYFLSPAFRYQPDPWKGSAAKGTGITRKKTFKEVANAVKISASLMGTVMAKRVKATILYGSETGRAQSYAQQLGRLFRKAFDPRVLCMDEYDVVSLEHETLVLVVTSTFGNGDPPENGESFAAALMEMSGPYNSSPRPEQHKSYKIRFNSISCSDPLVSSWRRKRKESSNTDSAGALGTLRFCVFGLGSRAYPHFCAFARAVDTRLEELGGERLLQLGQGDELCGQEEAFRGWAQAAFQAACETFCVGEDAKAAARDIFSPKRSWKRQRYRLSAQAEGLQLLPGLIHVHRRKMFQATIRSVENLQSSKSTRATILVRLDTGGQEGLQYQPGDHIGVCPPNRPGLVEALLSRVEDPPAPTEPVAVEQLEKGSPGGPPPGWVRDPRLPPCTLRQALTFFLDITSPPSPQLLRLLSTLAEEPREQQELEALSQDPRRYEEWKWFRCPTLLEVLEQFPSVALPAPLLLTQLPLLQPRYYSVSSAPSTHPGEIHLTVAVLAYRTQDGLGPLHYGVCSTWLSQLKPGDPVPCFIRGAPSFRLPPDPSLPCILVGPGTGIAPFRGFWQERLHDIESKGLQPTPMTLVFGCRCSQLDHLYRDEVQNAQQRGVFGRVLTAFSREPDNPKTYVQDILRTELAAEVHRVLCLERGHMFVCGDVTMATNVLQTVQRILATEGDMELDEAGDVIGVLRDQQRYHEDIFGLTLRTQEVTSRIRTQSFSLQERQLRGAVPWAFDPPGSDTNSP

[4] = Permeability of the compound across blood brain barrier at pH 7.4 at 12.5 uM incubated for 4 hrs by PAMPA assay; assay type: ADME; settings: read-out: permeability
Nitric oxide synthase 1 [5] = molecular target: T3, Nitric oxide synthase 1 (Homo sapiens, UniProt P29475); assay: Binding affinity to GST-tagged nNOS (unknown origin) expressed in Escherichia coli BL21 (DE3) assessed as change in enthalpy
T3 sequence (P29475 whole entry): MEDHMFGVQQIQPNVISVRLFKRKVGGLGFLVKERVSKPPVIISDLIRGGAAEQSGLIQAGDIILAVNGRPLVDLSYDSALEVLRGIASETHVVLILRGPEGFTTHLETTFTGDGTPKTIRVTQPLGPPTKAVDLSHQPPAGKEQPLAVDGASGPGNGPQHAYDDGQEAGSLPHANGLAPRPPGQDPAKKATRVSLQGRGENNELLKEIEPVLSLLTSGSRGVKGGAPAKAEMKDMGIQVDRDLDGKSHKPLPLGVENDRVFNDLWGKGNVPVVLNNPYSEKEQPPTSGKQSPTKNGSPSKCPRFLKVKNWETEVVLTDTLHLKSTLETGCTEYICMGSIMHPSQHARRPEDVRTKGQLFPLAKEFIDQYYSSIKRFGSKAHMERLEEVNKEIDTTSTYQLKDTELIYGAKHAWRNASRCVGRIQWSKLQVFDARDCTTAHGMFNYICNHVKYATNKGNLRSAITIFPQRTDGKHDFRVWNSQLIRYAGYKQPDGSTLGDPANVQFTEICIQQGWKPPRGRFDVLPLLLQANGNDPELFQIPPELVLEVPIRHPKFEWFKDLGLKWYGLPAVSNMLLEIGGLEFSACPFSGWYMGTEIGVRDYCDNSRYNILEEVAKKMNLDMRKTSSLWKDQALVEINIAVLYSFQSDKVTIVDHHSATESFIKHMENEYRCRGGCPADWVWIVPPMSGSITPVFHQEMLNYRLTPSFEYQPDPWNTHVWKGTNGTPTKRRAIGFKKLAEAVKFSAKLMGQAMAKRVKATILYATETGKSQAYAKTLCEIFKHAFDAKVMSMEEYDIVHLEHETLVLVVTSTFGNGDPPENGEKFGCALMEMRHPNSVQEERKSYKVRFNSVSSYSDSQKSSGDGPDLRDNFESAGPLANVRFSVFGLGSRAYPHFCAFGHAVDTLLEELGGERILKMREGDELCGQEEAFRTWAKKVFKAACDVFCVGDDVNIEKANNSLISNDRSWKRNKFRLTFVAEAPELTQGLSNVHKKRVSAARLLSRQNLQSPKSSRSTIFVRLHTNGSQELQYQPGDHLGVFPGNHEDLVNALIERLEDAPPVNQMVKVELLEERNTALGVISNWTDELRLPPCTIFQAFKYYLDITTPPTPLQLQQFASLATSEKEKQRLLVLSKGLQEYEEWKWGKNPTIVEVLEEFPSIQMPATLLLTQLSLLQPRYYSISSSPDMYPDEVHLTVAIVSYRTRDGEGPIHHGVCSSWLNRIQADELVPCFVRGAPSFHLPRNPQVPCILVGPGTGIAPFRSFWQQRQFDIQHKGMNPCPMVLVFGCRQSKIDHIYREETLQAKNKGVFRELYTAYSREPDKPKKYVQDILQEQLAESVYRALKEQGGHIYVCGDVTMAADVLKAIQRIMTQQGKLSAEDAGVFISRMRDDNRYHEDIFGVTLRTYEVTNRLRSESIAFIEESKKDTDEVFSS

[6] = molecular target: Nitric oxide synthase, inducible (Rattus norvegicus, UniProt Q06518); assay: Inhibition of rat iNOS
Nitric oxide synthase 3 [7] = molecular target: T4, Nitric oxide synthase 3 (Bos taurus, UniProt P29473); assay: Inhibition of bovine eNOS
T4 sequence (P29473 whole entry): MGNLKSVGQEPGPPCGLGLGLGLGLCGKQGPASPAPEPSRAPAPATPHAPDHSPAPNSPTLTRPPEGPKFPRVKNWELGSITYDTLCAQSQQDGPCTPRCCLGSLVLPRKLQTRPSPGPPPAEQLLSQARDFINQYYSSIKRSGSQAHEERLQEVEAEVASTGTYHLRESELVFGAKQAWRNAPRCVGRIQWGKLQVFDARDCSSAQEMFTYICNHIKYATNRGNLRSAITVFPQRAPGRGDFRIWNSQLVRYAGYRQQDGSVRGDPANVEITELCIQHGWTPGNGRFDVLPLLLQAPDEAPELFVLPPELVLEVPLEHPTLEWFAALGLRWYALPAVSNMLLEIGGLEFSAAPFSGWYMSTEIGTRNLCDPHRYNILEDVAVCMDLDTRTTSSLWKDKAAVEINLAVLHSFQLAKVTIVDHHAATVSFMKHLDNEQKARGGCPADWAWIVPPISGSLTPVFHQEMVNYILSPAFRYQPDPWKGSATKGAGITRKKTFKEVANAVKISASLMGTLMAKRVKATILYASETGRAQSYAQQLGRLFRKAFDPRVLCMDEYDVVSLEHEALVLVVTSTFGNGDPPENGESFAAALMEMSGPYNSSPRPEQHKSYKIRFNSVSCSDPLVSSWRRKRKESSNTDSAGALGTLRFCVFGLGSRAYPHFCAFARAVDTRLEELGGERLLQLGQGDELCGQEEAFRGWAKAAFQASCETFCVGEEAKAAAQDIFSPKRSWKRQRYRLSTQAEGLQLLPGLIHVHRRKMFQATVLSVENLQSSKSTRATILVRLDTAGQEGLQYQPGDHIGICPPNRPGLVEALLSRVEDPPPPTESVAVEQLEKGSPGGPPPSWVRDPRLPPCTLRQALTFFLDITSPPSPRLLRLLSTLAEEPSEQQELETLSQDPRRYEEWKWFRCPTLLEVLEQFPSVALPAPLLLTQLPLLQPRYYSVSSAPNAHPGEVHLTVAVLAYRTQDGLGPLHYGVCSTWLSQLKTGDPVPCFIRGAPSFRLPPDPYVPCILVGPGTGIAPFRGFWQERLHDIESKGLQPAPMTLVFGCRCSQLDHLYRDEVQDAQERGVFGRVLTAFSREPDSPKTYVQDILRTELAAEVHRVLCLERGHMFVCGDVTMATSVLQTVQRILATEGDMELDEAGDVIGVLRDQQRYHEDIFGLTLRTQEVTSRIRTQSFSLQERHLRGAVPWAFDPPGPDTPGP

Nitric oxide synthase 1 [8] = molecular target: Nitric oxide synthase 1 (Mus musculus, UniProt Q9Z0J4); assay: Inhibition of mouse nNOS
Sequence of Nitric oxide synthase 1 (Mus musculus, UniProt Q9Z0J4) (Q9Z0J4 whole entry): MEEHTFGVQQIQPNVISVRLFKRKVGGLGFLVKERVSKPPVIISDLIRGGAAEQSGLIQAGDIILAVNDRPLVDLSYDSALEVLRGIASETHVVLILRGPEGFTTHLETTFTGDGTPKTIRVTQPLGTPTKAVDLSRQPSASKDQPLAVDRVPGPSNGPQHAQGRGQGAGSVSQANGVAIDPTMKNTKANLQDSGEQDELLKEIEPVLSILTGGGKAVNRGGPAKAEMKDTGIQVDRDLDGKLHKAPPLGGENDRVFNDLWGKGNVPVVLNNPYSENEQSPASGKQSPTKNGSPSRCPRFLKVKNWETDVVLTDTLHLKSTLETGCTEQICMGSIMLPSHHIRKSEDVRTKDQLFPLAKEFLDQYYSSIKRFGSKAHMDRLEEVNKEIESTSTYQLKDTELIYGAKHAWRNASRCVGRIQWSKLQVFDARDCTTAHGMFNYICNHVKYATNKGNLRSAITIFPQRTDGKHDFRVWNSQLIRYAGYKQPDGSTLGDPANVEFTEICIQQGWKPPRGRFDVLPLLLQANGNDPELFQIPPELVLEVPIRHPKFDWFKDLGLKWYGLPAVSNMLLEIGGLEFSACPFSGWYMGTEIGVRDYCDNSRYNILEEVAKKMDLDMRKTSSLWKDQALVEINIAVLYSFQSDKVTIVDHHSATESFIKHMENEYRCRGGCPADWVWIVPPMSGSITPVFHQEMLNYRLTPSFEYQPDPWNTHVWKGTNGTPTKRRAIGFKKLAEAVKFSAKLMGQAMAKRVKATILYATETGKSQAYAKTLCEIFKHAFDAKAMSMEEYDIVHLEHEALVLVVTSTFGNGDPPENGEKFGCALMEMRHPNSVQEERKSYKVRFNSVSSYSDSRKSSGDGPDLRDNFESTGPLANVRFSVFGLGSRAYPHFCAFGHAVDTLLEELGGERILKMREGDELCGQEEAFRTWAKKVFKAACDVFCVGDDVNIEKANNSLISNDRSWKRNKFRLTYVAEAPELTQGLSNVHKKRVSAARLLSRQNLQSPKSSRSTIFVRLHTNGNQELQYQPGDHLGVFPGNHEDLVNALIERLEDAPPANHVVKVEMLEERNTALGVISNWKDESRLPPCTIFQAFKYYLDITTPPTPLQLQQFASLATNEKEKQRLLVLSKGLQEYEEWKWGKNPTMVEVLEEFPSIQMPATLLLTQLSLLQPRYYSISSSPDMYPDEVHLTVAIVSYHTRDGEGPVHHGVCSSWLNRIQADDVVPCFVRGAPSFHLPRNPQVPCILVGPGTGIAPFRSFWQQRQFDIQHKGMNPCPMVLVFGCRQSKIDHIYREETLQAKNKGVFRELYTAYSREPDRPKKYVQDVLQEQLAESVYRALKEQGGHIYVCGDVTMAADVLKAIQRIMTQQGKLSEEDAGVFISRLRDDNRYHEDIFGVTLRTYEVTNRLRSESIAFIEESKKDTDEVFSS

Platelet [9] = assay: Inhibition of AA-induced platelet aggregation in New Zealand White rabbit; assay type: functional, cell-based; settings: Oryctolagus cuniculus
Platelet [10] = assay: Inhibition of ADP-induced platelet aggregation in New Zealand White rabbit; assay type: functional, cell-based; settings: Oryctolagus cuniculus
Nitric oxide synthase 1 [11] = molecular target: T3, Nitric oxide synthase 1; assay: Binding affinity to nNOS (unknown origin) assessed as inhibition constant
[12] = molecular target: Nitric oxide synthase, inducible (Homo sapiens, UniProt P35228); assay: Binding affinity to iNOS (unknown origin) assessed as inhibition constant
Nitric oxide synthase 3 [13] = molecular target: T2, Nitric oxide synthase 3; assay: Binding affinity to eNOS (unknown origin) assessed as inhibition constant
[14] = Inhibition of NOS (unknown origin); design: species or system Homo sapiens
Platelet [15] = assay: Inhibition of ADP-induced platelet aggregation (unknown origin); assay type: functional, cell-based
[16] = Water solubility at pH 7.4; assay type: physicochemical
[17] = Neuroprotective activity in rat hippocampal neuron cells assessed as NMDA-induced cGMP production; assay type: functional, cell-based; settings: Hippocampal neurone

SMILES: N=C(Nc1ccc2c(c1)CNCC2)c1cccs1
IC50 [1]: 5.5 µM
IC50 (Nitric oxide synthase 1 [2]): 0.05 µM
IC50 (Nitric oxide synthase 3 [3]): 10 µM

SMILES: COC(=O)C[C@H](NC(=O)[C@@H](C)NCCC1CCCCC1)C(=O)N[C@H](C)C(=O)N[C@@H](C(=O)O)C(C)C
Papp at 4 h, 12.5 µM [4]: 60.7 nm/s
deltaH (Nitric oxide synthase 1 [5]): -6.99 kJ/mol

SMILES: N=C(N)NN [PIMAGEDINE]
Ki (Nitric oxide synthase 1 [11]): 830 µM
Ki [12]: 16 µM
Ki (Nitric oxide synthase 3 [13]): > 8000 µM

SMILES: COC(=O)[C@@H](N)CCCNC(=N)N[N+](=O)[O-] [L-NAME]
IC50 [14]: 70 µM

SMILES: CN1CCc2ccc(NC(=N)c3cccs3)cc2C1
IC50 [1]: 5 µM
IC50 (Nitric oxide synthase 1 [2]): 0.08 µM
IC50 (Nitric oxide synthase 3 [3]): 24 µM

Further lines, results first:

IC50 [6]: 27 µM
IC50 (Nitric oxide synthase 3 [7]): 1060 µM
IC50 (Nitric oxide synthase 1 [8]): 28.2 µM
SMILES: FC(F)(F)c1ccccc1-n1ccnc1

IC50 (Platelet [9]): 0.556 µM
IC50 (Platelet [10]): 0.734 µM
SMILES: Cc1nc(C)c(COC(=O)c2cccc(OCCCCO[N+](=O)[O-])c2)nc1C

IC50 [14]: 0.71 µM
SMILES: O=[N+]([O-])c1cccc2cn[nH]c12 [7-NITROINDAZOLE]

IC50 (Platelet [15]): 0.44 µM
solubility [16]: 2.13 µM (≈ 1.09 µg/mL)
SMILES: CCCCC(OC(C)=O)c1ccccc1C(=O)O[C@H]1CO[C@H]2[C@@H]1OC[C@H]2OC(=O)NCCO[N+](=O)[O-] (stereo partly specified)

IC50 [17]: 2.7 µM
SMILES: Oc1c(Cl)cc(Cl)cc1CNc1ccc2nn[nH]c2c1
